Test system: AGE-related proteins
Experiment: Inhibition of AGE-related proteins (HSA + glucose incubation, fluorescence)
Assay type: biochemical, human
Settings: 7 days of incubation
Procedure: Inhibition of AGE-related proteins was assayed according to the following method. First, a reaction mixture was prepared by mixing 20 mg/ml of human serum albumin (HSA) in 200 mM phosphate buffer (pH 7.4) with 500 mM [90.08 mg/ml] of glucose and 0.02% [0.2 mg/ml] sodium azide (as a preservative). The reaction mixture was incubated at 37° C. for three weeks, during which time AGE-related proteins were produced via a Maillard-type reaction. After 7, 14 and 21 days, aliquots of the reaction mixture were passed through a molecular weight sieve (PD-10 column) and equilibrated in water to remove free glucose and Schiff base. […] The latter reaction generates fluorescent by-products with fluorescence proportional to the amount of accumulated AGE-related proteins as determined with a microplate fluorescence reader (Bio-Tek FL600) at an excitation wavelength of 360 nm and an emission wavelength of 440 nm.
To aliquots of the initial reaction mixture capable of producing AGE-related endproducts as described above were added varying concentrations of extract of G. lucidum according to the present invention (i.e., hydrolyzed with acid protease of R. miehei and thereafter rendered substantially devoid of acid protease activity). […] Fluorescence was measured after 7 days of incubation in the reaction mixture as set out above.

Which “Fluorescence (at 440 nm), normalized to 100” value (100 mM + Positive Control) does the source give for `N=C(N)NN` [aminoguanidine, Aminoguanidine] here?
The value was 73.

And the “Fluorescence (at 440 nm), normalized to 100” value (200 mM + Positive Control)?
The value was 45.
